target: T1, Tyrosine-protein kinase ITK/TSK (Homo sapiens, UniProt Q08881); experiment: Inhibition of full-length recombinant human GST-tagged ITK expressed in baculovirus expression system by Z'-LYTE assay
T1 sequence (Q08881 whole entry): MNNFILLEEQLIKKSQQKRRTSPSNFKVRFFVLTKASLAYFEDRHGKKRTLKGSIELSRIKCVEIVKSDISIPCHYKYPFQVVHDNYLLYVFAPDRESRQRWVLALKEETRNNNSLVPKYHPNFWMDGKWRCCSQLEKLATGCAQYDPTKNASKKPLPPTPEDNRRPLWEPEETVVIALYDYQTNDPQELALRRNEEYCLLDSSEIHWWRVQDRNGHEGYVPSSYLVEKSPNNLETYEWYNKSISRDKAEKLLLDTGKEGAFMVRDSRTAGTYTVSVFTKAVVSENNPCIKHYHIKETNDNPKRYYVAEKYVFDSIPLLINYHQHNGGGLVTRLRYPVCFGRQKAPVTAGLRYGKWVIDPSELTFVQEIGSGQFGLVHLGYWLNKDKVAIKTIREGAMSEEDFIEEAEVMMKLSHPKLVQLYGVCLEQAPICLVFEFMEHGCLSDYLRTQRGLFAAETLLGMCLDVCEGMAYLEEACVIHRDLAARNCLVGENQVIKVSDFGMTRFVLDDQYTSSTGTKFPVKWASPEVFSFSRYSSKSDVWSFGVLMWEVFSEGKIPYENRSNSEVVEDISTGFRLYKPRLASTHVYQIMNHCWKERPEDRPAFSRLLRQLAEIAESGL

Point of comparison: `Cc1sc(C(=O)N[C@@H]2[C@H](N)CCCC2(F)F)cc1-c1cnn2cc(Cl)cnc12`, IC50 4200 nM. Against it:
- Cn1cc(-c2cnc3c(-c4csc(C(=O)NCC(F)(F)F)c4)cnn3c2)cn1 — 45-fold lower, 94 nM
- O=C(NCC(F)(F)F)c1cc(-c2cnn3cc(-c4ccc(OCCN5CCCCC5)cc4)cnc23)cs1 — 160-fold lower, 26 nM
- Cn1cc(-c2cnc3c(-c4csc(C(=O)N[C@@H]5CCCC[C@@H]5N)c4)cnn3c2)cn1 (racemic) — 160-fold lower, 26 nM

target: Protein kinase C theta type (Homo sapiens, UniProt Q04759); experiment: Inhibition of full-length recombinant human His-tagged PRKCQ expressed in baculovirus expression system by Z'-LYTE assay
Sequence (Q04759 whole entry): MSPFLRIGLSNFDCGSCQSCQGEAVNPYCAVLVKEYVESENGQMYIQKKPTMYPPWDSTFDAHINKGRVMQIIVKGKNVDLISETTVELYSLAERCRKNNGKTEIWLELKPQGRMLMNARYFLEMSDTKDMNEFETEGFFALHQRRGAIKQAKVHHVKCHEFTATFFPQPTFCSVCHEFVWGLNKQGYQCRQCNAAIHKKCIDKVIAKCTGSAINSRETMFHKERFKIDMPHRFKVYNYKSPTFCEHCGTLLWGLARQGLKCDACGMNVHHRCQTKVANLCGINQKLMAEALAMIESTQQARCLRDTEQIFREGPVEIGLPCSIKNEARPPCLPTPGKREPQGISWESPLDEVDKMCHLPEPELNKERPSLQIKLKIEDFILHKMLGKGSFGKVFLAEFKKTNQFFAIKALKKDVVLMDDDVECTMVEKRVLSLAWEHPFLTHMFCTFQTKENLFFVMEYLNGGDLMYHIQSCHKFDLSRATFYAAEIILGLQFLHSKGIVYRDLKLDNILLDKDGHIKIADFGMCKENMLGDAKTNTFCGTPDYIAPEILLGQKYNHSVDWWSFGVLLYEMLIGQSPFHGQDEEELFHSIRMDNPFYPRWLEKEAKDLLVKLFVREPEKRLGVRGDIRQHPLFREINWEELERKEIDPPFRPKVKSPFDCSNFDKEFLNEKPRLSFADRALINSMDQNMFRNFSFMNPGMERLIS

Point of comparison: `Cn1cc(-c2cnc3c(-c4csc(C(=O)N[C@@H]5CCCC[C@@H]5N)c4)cnn3c2)cn1` (racemic), IC50 270 nM. Against it:
- Cn1cc(-c2cnc3c(-c4csc(C(=O)NCC(F)(F)F)c4)cnn3c2)cn1 — higher, > 100000 nM
- Cc1sc(C(=O)N[C@@H]2[C@H](N)CCCC2(F)F)cc1-c1cnn2cc(Cl)cnc12 — 32-fold higher, 8700 nM
- O=C(NCC(F)(F)F)c1cc(-c2cnn3cc(-c4ccc(OCCN5CCCCC5)cc4)cnc23)cs1 — 24-fold higher, 6600 nM

target: T2, Ephrin type-B receptor 2 (Homo sapiens, UniProt P29323); experiment: Inhibition of recombinant human GST-tagged cytoplasmic EPHB2 expressed in baculovirus expression system by Z'-LYTE assay
T2 sequence (P29323 whole entry): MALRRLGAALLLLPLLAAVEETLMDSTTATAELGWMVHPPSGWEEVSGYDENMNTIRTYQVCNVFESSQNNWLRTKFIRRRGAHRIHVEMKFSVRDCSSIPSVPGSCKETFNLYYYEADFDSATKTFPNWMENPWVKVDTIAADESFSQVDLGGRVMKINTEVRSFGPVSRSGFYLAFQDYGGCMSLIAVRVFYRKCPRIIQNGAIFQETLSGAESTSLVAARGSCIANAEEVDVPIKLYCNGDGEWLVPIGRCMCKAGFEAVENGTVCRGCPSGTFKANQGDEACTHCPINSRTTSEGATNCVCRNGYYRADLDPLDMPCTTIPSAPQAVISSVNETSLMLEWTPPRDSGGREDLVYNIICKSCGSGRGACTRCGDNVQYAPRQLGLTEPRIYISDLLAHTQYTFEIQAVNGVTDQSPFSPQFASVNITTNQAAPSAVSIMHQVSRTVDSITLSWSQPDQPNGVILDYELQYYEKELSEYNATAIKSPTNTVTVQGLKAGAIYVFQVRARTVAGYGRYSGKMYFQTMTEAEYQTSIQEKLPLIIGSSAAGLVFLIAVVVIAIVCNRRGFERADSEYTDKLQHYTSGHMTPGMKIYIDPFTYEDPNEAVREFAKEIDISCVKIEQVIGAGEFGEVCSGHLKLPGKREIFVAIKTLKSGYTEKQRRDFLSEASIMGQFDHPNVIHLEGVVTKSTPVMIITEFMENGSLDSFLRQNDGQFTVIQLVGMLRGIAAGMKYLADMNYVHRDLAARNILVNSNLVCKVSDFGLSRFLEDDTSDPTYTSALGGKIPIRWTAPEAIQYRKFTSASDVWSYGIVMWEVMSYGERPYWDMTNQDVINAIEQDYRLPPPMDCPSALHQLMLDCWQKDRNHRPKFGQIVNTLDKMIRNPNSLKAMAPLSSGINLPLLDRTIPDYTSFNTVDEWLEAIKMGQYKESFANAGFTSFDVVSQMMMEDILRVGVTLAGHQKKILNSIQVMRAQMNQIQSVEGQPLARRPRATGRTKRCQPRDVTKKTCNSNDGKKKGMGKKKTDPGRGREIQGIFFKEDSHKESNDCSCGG

Point of comparison: `Cn1cc(-c2cnc3c(-c4csc(C(=O)NCC(F)(F)F)c4)cnn3c2)cn1`, IC50 36 nM. Against it:
- Cc1sc(C(=O)N[C@@H]2[C@H](N)CCCC2(F)F)cc1-c1cnn2cc(Cl)cnc12 — 110-fold higher, 3800 nM
- O=C(NCC(F)(F)F)c1cc(-c2cnn3cc(-c4ccc(OCCN5CCCCC5)cc4)cnc23)cs1 — lower, < 10 nM
- Cn1cc(-c2cnc3c(-c4csc(C(=O)N[C@@H]5CCCC[C@@H]5N)c4)cnn3c2)cn1 (racemic) — 12-fold lower, 2.9 nM

target: T3, Tyrosine-protein kinase ZAP-70 (Homo sapiens, UniProt P43403); experiment: Inhibition of full-length recombinant human His-tagged cytoplasmic ZAP70 expressed in baculovirus expression system by Z'-LYTE assay
T3 sequence (P43403 whole entry): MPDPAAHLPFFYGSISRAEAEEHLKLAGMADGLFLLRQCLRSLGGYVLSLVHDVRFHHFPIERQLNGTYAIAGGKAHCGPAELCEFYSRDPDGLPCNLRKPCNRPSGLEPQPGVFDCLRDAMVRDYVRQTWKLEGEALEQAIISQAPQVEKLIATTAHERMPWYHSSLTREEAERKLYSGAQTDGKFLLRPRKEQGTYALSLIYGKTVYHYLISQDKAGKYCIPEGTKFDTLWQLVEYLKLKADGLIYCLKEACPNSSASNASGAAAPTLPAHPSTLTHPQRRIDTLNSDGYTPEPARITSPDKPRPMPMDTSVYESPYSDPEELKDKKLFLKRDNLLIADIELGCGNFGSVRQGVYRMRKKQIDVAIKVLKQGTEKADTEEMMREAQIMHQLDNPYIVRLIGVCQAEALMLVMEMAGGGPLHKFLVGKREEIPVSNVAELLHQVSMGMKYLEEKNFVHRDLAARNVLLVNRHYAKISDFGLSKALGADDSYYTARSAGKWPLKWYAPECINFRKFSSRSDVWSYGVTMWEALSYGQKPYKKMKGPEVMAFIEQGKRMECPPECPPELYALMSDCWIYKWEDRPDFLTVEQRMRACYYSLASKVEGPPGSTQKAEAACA

`Cn1cc(-c2cnc3c(-c4csc(C(=O)NCC(F)(F)F)c4)cnn3c2)cn1` and `Cn1cc(-c2cnc3c(-c4csc(C(=O)N[C@@H]5CCCC[C@@H]5N)c4)cnn3c2)cn1` (racemic) cannot be ordered by IC50: over 100000 nM for the first, over 10000 nM for the second.

`Cc1sc(C(=O)N[C@@H]2[C@H](N)CCCC2(F)F)cc1-c1cnn2cc(Cl)cnc12` and `O=C(NCC(F)(F)F)c1cc(-c2cnn3cc(-c4ccc(OCCN5CCCCC5)cc4)cnc23)cs1` cannot be ordered by IC50: over 100000 nM for the first, over 100000 nM for the second.

target: Serine/threonine-protein kinase B-raf (Homo sapiens, UniProt P15056); experiment: Inhibition of full-length recombinant human GST-tagged BRAF expressed in baculovirus expression system by Z'-LYTE assay
Sequence (P15056 whole entry): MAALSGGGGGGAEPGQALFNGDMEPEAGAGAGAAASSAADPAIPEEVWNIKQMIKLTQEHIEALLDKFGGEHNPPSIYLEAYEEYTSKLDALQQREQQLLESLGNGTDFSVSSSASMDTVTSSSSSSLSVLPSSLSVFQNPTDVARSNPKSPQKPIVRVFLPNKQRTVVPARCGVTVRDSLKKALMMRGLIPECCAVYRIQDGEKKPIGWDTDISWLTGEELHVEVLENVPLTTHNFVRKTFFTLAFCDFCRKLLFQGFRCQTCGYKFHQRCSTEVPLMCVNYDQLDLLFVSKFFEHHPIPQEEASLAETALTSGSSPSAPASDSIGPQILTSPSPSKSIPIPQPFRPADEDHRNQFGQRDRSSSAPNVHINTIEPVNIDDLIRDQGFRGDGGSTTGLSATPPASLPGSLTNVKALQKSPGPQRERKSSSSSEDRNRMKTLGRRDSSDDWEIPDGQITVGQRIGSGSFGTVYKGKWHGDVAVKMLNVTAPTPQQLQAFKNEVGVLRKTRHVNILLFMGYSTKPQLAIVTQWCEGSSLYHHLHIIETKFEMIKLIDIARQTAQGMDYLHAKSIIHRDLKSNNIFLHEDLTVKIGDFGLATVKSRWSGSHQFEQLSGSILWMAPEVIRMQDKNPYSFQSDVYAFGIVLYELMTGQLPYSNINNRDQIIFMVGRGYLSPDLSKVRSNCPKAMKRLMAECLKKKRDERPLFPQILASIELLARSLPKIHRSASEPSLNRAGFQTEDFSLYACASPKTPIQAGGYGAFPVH

Point of comparison: `Cn1cc(-c2cnc3c(-c4csc(C(=O)N[C@@H]5CCCC[C@@H]5N)c4)cnn3c2)cn1` (racemic), IC50 19 nM. Against it:
- Cn1cc(-c2cnc3c(-c4csc(C(=O)NCC(F)(F)F)c4)cnn3c2)cn1 — 79-fold higher, 1500 nM
- Cc1sc(C(=O)N[C@@H]2[C@H](N)CCCC2(F)F)cc1-c1cnn2cc(Cl)cnc12 — 58-fold higher, 1100 nM
- O=C(NCC(F)(F)F)c1cc(-c2cnn3cc(-c4ccc(OCCN5CCCCC5)cc4)cnc23)cs1 — 29-fold higher, 550 nM

target: Tyrosine-protein kinase SYK (Homo sapiens, UniProt P43405); experiment: Inhibition of full-length recombinant human N-terminal GST-tagged cytoplasmic SYK expressed in baculovirus expression system by Z'-LYTE assay

Point of comparison: `Cn1cc(-c2cnc3c(-c4csc(C(=O)NCC(F)(F)F)c4)cnn3c2)cn1`, IC50 750 nM. Against it:
- Cc1sc(C(=O)N[C@@H]2[C@H](N)CCCC2(F)F)cc1-c1cnn2cc(Cl)cnc12 — 16-fold higher, 12000 nM
- O=C(NCC(F)(F)F)c1cc(-c2cnn3cc(-c4ccc(OCCN5CCCCC5)cc4)cnc23)cs1 — 1.7-fold lower, 440 nM
- Cn1cc(-c2cnc3c(-c4csc(C(=O)N[C@@H]5CCCC[C@@H]5N)c4)cnn3c2)cn1 (racemic) — 18-fold lower, 42 nM
